Laboratory results taken from patent US20260008784A1 (VASTHERA CO., LTD., priority 2022, published 2026).
Read-outs that look alike come from different tables or passages of the source.

What was measured:
[1] = system: yeast thioredoxin (Trx)/yeast Trx reductase (TR); assay: Peroxidase activity assay (H2O2 reduction, NADPH oxidation); format: biochemical; settings: 50 μM test compound, 3 μM yeast Trx, 1.5 μM yeast TR, 250 μM NADPH, 1.2 mM H2O2, 30° C.; NADPH oxidized per minute
Method: Hydrogen peroxide (H2O2)-reducing peroxidase activity of compounds in present invention was performed as follows. Peroxyredoxin activity was measured in reaction mixture (200 μL volume) containing 50 mM HEPES buffer (pH 7.0), 1 mM EDTA, 250 μM NADPH, 3 μM yeast thioredoxin (Trx), 1.5 μM yeast Trx reductase (TR), 50 μM test compound, and 1.2 mM H2O2.
Reaction was initiated by adding H2O2 and the decrease in absorbance at 340 nm was measured using Agilent UV8453 spectrophotometry (Hewlett Packard, USA) at 30° C. for 12 min. Initial reaction rate is the amount of NADPH oxidized per minute calculated from slope of the linear part of curve.
The H2O2-reducing peroxidase activity of the test compounds in present invention was measured in a reaction mixture containing thioredoxin (Trx)/thioredoxin reductase (TR), respectively.

in vitro [2] = settings: human
Method: For cytotoxicity analysis, human aortic endothelial cells (HAEC) and smooth muscle cells (HASMC) were seeded in a 96-well culture plate at density of 4000 cells/well in a final volume of 100 μL. Cells were cultured for 24 h and serum-starved for an additional 18 h. Test compounds were serially diluted with EBM-2 culture medium, added to the plate at 100 μL/well, and further incubated for 24 h. The number of viable cells was measured using the WST-1 cell viability assay kit (Roche Diagnostics, USA). Cell number was expressed as absorbance values at 450 nm after subtracting the turbidity value at 600 nm. The absorbance values from three replicate wells were averaged.
After treatment with ascending concentrations of each compound, the concentration of test compound corresponding to 50% cell viability (CC50) was measured.

in vitro [3] = assay: in vitro
Method: Cytotoxicity tests were performed against vascular endothelial cells, vascular smooth muscle cells and hepatocytes. After treatment with ascending concentrations of each compound, the concentration of test compound corresponding to 50% cell viability (CC50) was measured.

NIH-3T3 cells = assay: Intracellular H2O2-eliminating activity (CM-H2DCF-DA fluorescence); format: cell-based; settings: Mus musculus, NIH3T3, glucose oxidase, concentration at 50% reduction of intracellular H2O2
Method: The activity of test compounds in present invention to eliminate intracellular H2O2 was measured as follows. NIH-3T3 cells (ATCC) were seeded in a 35-mm culture dish at 2×10^5 cells/well. After culture for 24 hours, cells were serum-starved with phenol red free-basal DMEM containing 0.5% FBS for 6 h. Starved NIH 3T3 cells were pretreated with compounds diluted with phenol red free-basal DMEM at concentrations ([…]) for 30 min, followed by treatment with 20 mU of glucose oxidase (Gox) for 30 min. A reactive oxygen species-sensitive fluorescence dye, carboxymethyl-dichlorofluorescein-diacetate (CM-H2DCF-DA), which was prepared in 1 mM DMSO stock and diluted 500 times in phenol red free-basal DMEM, was added to the cells and incubated for 5 min. Then, cells were quickly rinsed with basal medium. Images were taken at excitation 497 nm/emission 518 nm settings using a fluorescence microscope. Three images at 10× magnification per sample were obtained, and fluorescence intensities from 30 or more individual cells per image were averaged.
The intracellular H2O2-eliminating activity of test compounds in present invention was measured using a live-cell imaging fluorescence probe (CM-HaDCF-DA). H2O2-eliminating activity was measured depending on ascending concentrations of the test compound and expressed as the percent of activity compared to the untreated control group. EC50 represents the concentration of test compound at 50% reduction of intracellular H2O2.

[4] = Measurement of redox potential (DTT redox buffers, HPLC); format: physicochemical; settings: DTT(Red)/DTT(Ox) redox buffers, 3 h, 30° C., 50% reduction of test compound
Method: A test compound (10 mM) was diluted 20-fold with each redox buffer solution and incubated for 3 h in a 30° C. water bath. Then, compounds were analyzed by HPLC. The area of peaks corresponding to the oxidized and reduced forms of test compound based on specific retention time was calculated and plotted as percent of total peak area against the Nernst equation value (mV) at x-axis. The Nernst equation value corresponding to 50% reduction of test compound was set as the midpoint redox potential value for test compound.
The redox potential values of the test compounds were analyzed based on the potential values established in redox buffer solutions where reduced and oxidized DTT are mixed at various ratios.

[5] = system: Tyr 1175 phosphorylation of VEGF receptor-2 (VEGFR2) in HAEC; assay: Immunoblot of VEGF-mediated signaling in PrxII knock-down HAEC; format: cell-based, human; settings: HAECs depleted of PrxII expression, FIG. 5
Method: (§1) Cells were quickly washed in ice-cold phosphate-buffered saline (PBS) and lysed in extraction buffer containing 20 mM Hepes (pH 7.0), 1% Triton X-100, 150 mM NaCl, 10% glycerol, 1 mM EDTA, 2 mM EGTA, and 1 mM DTT, 5 mM Na3VO4, 5 mM NaF, 1 mM AEBSF, aprotinin (5 μg/mL), and leupeptin (5 μg/mL). After cen-trifugation at 12,000×g, the clarified cell extracts were used for immunoblotting. For re-blotting, the immunoblots were retrieved in a solution of 67 mM Tris (pH 6.7), 2% SDS, and 100 mM 2-mercaptoethanol at 60° C. for 30 min to remove antibodies and rinsed three times with a Tris-buffered saline (TBS) solution containing 1% Triton X-100. The retrieved membranes were subjected to new immunoblotting.
In human aortic endothelial cell (HAEC) and human pulmonary artery endothelial cell (PAEC) in which PrxII was knocked out by transfecting the PrxII siRNA, the ability of test compounds to replace the cellular function of PrxII was evaluated. That is, the efficacy of the new compounds was verified in terms of signaling pathways induced by VEGF that regulates the growth and migration of vascular endothelial cells in the aorta and pulmonary artery. Activation of VEGF-induced signaling pathway was analyzed by an immunoblot method using an antibody that specifically recognizes phosphorylation of Tyr 1175, which is a major phosphorylation site on VEGF receptor-2 (VEGFR2).

[6] = system: Tyr 857 phosphorylation of PDGF receptor-β (PDGFRβ) in HASMC; assay: Immunoblot of PDGF-mediated signaling in PrxII knock-down HASMC; format: cell-based, human; settings: HASMC depleted of PrxII expression, FIG. 2
Method: as §1
In human aortic smooth muscle cell (HASMC) and human pulmonary artery smooth muscle cell (PASMC) in which PrxII was knocked out by transfecting the PrxII siRNA, the ability of test compounds to replace the cellular function of PrxII was evaluated. That is, the efficacy of the new compounds was verified in terms of signaling pathways induced by PDGF that regulates the growth and migration of vascular smooth muscle cells in the aorta and pulmonary artery. Activation of PDGF-induced signaling pathway was analyzed by an immunoblot method using an antibody that specifically recognizes phosphorylation of Tyr 857, which is a major phosphorylation site on PDGF receptor (PDGFRβ).

[7] = system: human aortic endothelial cell (HAEC); assay: VEGF-induced proliferation assay, HAEC (PrxII siRNA); format: cell-based; settings: for Degree of HAEC proliferation: VEGF-A 25 ng/mL, percent of untreated control
Method: (§2) HAECs and PAECs were transfected with a PrxII-specific siRNA using RNAi MAX transfection reagent according to manufacturer's protocol. After 24 hours, transfected cells (3,000 cells/well) were seeded in a 96-well culture plate. At 12 h after seeding, cells were serum-starved for additional 18 h in EBM basal medium containing 0.5% FBS. Test compounds were serially diluted with the same basal medium containing 0.5% FBS, added to the cells ([…]), and incubated for 2 h. After treatment, cells were placed in fresh EBM medium containing 0.5% FBS and VEGF-A (25 ng/mL) for growth factor stimulation and further cultured for 24 h.
(§3) The degree of cell proliferation was measured using the Cell Titer-GLO kit ([…]). Data are the percent of luminescence intensity averaged from three replicate wells versus that of untreated control group.
In human aortic endothelial cell (HAEC) and human pulmonary artery endothelial cell (PAEC) in which PrxII was knocked out by transfecting the PrxII siRNA, the ability of test compounds to augment the VEGF-induced proliferation of vascular endothelial cells was evaluated. In Table 7, the degree of proliferation in the compound-treated groups is expressed as percent of the degree of proliferation in untreated control group. The effective concentrations of test compounds increasing cell proliferation by 50% (EC50) is also listed.

[8] = system: human aortic smooth muscle cell (HASMC); assay: PDGF-induced proliferation assay, HASMC (PrxII siRNA); format: cell-based; settings: for Degree of HASMC proliferation: PDGF-BB 25 ng/mL, percent of untreated control
Method: as §2, with “HASMCs” for “HAECs”, “PASMCs” for “PAECs”, “SmBM” for “EBM”, “PDGF-BB” for “VEGF-A”
as §3
(§4) In human aortic smooth muscle cell (HASMC) and human pulmonary artery smooth muscle cell (PASMC) in which PrxII was knocked out by transfecting the PrxII siRNA, the ability of test compounds to inhibit the PDGF-induced proliferation of vascular smooth muscle cells was evaluated. In Table 6, the degree of proliferation in the compound-treated groups is expressed as percent of the degree of proliferation in untreated control group. The concentrations of test compounds corresponding to 50% growth inhibition (IC50) is also listed.

[9] = system: human pulmonary artery smooth muscle cell (PASMC); assay: PDGF-induced proliferation assay, PASMC (PrxII siRNA); format: cell-based; settings: for Degree of PASMC proliferation: PDGF-BB 25 ng/mL, percent of untreated control
Method: as §2, with “HASMCs” for “HAECs”, “PASMCs” for “PAECs”, “SmBM” for “EBM”, “PDGF-BB” for “VEGF-A”
as §3, §4

CN1C(=O)C2CSSC1(C)C(=O)N2Cc1cnn(C)c1 (centres unmarked) [Compound 13, 1,8-dimethyl-6-((1-methyl-1H-pyrazol-4-yl)methyl)-2,3-dithia-6,8-diazabicyclo[3.2.2]nonane-7,9-dione]
Peroxidase activity for H2O2 reduction [1]: 4.78 nmol/min
CC50 (in vitro [2]): > 500 µM
CC50 (in vitro [3]): > 500 µM

C=CCN1C(=O)C2SSC1C(=O)N2CC=C [Control compound (A5), reference compound]
EC50 (NIH-3T3 cells): 0.0152 µM
Peroxidase activity for H2O2 reduction [1]: 4.25 nmol/min
CC50 (in vitro [3]): 62.3 µM

CN1C(=O)C2CSSC1(C)C(=O)N2Cc1ccccc1 (centres unmarked) [Compound 2, 6-benzyl-1,8-dimethyl-2,3-dithia-6,8-diazabicyclo[3.2.2]nonane-7,9-dione]
EC50 (NIH-3T3 cells): 0.00647 µM
Midpoint redox potential (E m) [4]: −293.19 mV
Peroxidase activity for H2O2 reduction [1]: 5.05 nmol/min
CC50 (in vitro [3]): > 500 µM
Effect on phosphorylation of Tyr 1175 on VEGFR2 [5]: strongly abolish the phosphorylation
Effect on phosphorylation of Tyr 857 on PDGFR [6]: strongly abolish the phosphorylation

CN1C(=O)C2CSSC1(C)C(=O)N2Cc1ccccn1 (centres unmarked) [Compound 6, 1,8-dimethyl-6-(pyridin-2-ylmethyl)-2,3-dithia-6,8-diazabicyclo[3.2.2]nonan-7,9-dione]
EC50 (NIH-3T3 cells): 0.00599 µM
Midpoint redox potential (E m) [4]: −290.39 mV
Peroxidase activity for H2O2 reduction [1]: 4.57 nmol/min
CC50 (in vitro [3]): 341 µM
Effect on phosphorylation of Tyr 1175 on VEGFR2 [5]: strongly abolish the phosphorylation
Effect on phosphorylation of Tyr 857 on PDGFR [6]: strongly abolish the phosphorylation

CN1CCN2C(=O)C3CSSC2(C1)C(=O)N3Cc1ccccc1 (centres unmarked) [Compound 21, 12-benzyl-9-methylhexahydro-5H-4,10a-(epiminomethano)pyrazino[2,1-c][1,2,4]dithi azepine-5,11-dione]
Degree of HAEC proliferation ([7]; 2.5 nM): 105.0%
Degree of HAEC proliferation ([7]; 5 nM): 122.7%
Degree of HAEC proliferation ([7]; 10 nM): 154.6%
Degree of HAEC proliferation ([7]; 25 nM): 190.1%
Degree of HAEC proliferation ([7]; 50 nM): 202.0%
Degree of HAEC proliferation ([7]; 100 nM): 141.2%
EC50 ([7]; Homo sapiens, Endothelial cell, effective concentration increasing cell proliferation by 50%, VEGF-stimulated): 0.00996 µM
Degree of HASMC proliferation ([8]; 2.5 nM): 88.1%
Degree of HASMC proliferation ([8]; 5 nM): 63.9%
Degree of HASMC proliferation ([8]; 10 nM): 27.2%
Degree of HASMC proliferation ([8]; 25 nM): 4.0%
IC50 ([8]; Homo sapiens, HASMC, 50% growth inhibition, PDGF-stimulated): 0.00641 µM
Midpoint redox potential (E m) [4]: −272.86 mV
Peroxidase activity for H2O2 reduction [1]: 8.38 nmol/min
Degree of PASMC proliferation ([9]; 2.5 nM): 69.9%
Degree of PASMC proliferation ([9]; 5 nM): 49.6%
Degree of PASMC proliferation ([9]; 10 nM): 18.7%
Degree of PASMC proliferation ([9]; 25 nM): 6.0%
Degree of PASMC proliferation ([9]; 50 nM): 7.1%
Degree of PASMC proliferation ([9]; 100 nM): 0.0%
IC50 ([9]; Homo sapiens, PASMC, 50% growth inhibition, PDGF-stimulated): 0.00451 µM
Effect on phosphorylation of Tyr 1175 on VEGFR2 [5]: strongly abolish the phosphorylation
Effect on phosphorylation of Tyr 857 on PDGFR [6]: strongly abolish the phosphorylation

Cc1cccc(CN2C(=O)C3(C)SSCC2C(=O)N3C)n1 (centres unmarked) [Compound 12, 1,8-dimethyl-6-((6-methylpyridin-2-yl)methyl)-2,3-dithia-6,8-diazabicyclo[3.2.2]nonane-7,9-dione]
Peroxidase activity for H2O2 reduction [1]: 4.94 nmol/min
CC50 (in vitro [2]): > 500 µM
CC50 (in vitro [3]): > 500 µM
